Article PMC7728077, “Double-Headed Cationic Lipopeptides: An Emerging Class of Antimicrobials” (International Journal of Molecular Sciences, 2020)
In brackets after ≈: the same amount, converted by molar mass. Square brackets hold non-standard residues; d marks the D form. Peptide text beside a SMILES is read from it. * marks the point of attachment. Palmitoyl = CCCCCCCCCCCCCCCC(=O)*; Orn = NCCC[C@H](N)C(=O)O; Dab = NCC[C@H](N)C(=O)O; Dap = NC[C@H](N)C(=O)O

Columns and labels:
[1] = tested on: 46BR.1N human skin fibroblasts cell line; format: cell-based
Description: (§1) Cytotoxicity was determined towards immortalized human HaCaT keratinocytes (DKFZ, Heidelberg, Germany), transformed human fibroblast cell line 46BR.1N (ECACC), as well as the human melanoma (A375), human lung cancer (A549), human colon cancer (HCT-116), human colon adenocarcinoma (HT-29), and human prostate cancer (LNCaP) cell lines. Keratinocytes and fibroblast cell lines were maintained in a humidified atmosphere with 5% CO2 at 37 °C in a Dulbecco’s modified Eagle’s medium (DMEM) (Sigma-Aldrich, Steinheim, Germany), which contained 4500 mg/L of glucose, 584 mg/L of L-glutamine, sodium pyruvate, and sodium bicarbonate. Additionally, the medium was supplemented with 10% of fetal bovine serum (FBS) (Sigma-Aldrich, Steinheim, Germany), 100 U/mL of penicillin, and 100 µg/mL of streptomycin (Sigma-Aldrich, Steinheim, Germany). The cells were grown in culture dishes (BD, Franklin Lakes, NJ, USA) and the medium was changed every 2 days. Afterwards, the fibroblasts and keratinocytes were harvested using a standard trypsin-EDTA solution, centrifuged, suspended in a medium supplemented with 10% FBS and seeded at a density of 5500–6000 cells per well into 96-well plates. After 24 h, the medium was exchanged with a serum- and antibiotic-free DMEM. The next day, serially diluted solutions of the lipopeptides prepared in a fresh FBS- and antibiotic-free medium were added to the wells. The potential cytotoxic effect of the compounds was analyzed over the concentration range of 1–25 µg/mL. After addition of the lipopeptides, cells were incubated for the next 24 h. At the end of the experiment, the cells were treated with 20 µL of MTT (5 mg/mL in PBS). After 3 h at 37 °C under 5% CO2, the medium was discarded and replaced by 6 mM HCl in isopropanol. As soon as the purple crystals of formazan were completely solubilized, absorbance was read at 570 nm with a plate reader. The optical density of the wells without the tested compounds were regarded as the positive control. The MTT assay was performed in triplicate for each cell line.
(§2) Determination of the half-maximum inhibitory concentrations (IC50) was done using GraphPad Prism 5 software (San Diego, CA, USA) based on the dose-response curves. The logarithm of the different concentrations of compounds was plotted against the percentage of inhibition in cell viability as compared with control probes, treated as 100%.

[2] = tested on: A549 human epithelial lung carcinoma; format: cell-based
Description: (§3) In the case of evaluation of cytotoxicity towards different types of the cancer cell lines (A375, A549, HCT-116, HT-29, and LNCaP, respective cells were seeded in 96-well plates (4500 cell/well) in the RPMI-1640 medium supplemented with 5% FBS without antibiotics and incubated for 24 h before stimulation with the lipopeptides. The next day, the cells were exposed to the effect of the serially diluted compounds added at concentrations ranging from 1 to 25 µg/mL for a period of 48 h. After the treatment, cells viability was evaluated by means of MTT assays, according to standard protocol, as just described. The experiment was repeated three times for each cell line.
as §2

[3] = tested on: LNCaP human prostate carcinoma; format: cell-based
Description: as §3, §2

[4] = tested on: A375 human malignant melanoma cell line; format: cell-based
Description: as §3, §2

[5] = tested on: HCT-116 human colorectal carcinoma; format: cell-based
Description: as §3, §2

[6] = tested on: HT-29 human colorectal adenocarcinoma; format: cell-based
Description: as §3, §2

[7] = tested on: Escherichia coli ATCC 25922; format: cell-based; conditions: ATCC 25922, 18 h
Text: (§4) Fmoc-Lys(Boc)-OH and the coupling reagents were purchased from GL Biochem (Shanghai, China). Palmitoyl Fmoc-amino acids: Fmoc-Lys(C16)-OH, Fmoc-Orn(C16)-OH, Fmoc-Dab(C16)-OH, and Fmoc-Dap(C16)-OH were acquired from Iris Biotech GmbH (Marktredwitz, Germany). The resin and solvents were purchases from Rapp Polymere (Tübingen, Germany), Merck (Darmstadt, Germany), and Avantor Performance Materials (Gliwice, Poland), respectively. The phospholipids, 1,2-dipalmitoyl-sn-glycero-3-phosphocholine (DPPC), 1,2-dipalmitoyl-sn-glycero-3-[phospho-rac-(1-glycerol)] (DPPG), 1-palmitoyl-2-oleoyl-glycero-3-phosphocholine (POPC) and 1-palmitoyl-2-oleoyl-sn-glycero-3-[phospho-rac-(1-glycerol)] (POPG), were purchased from Avanti Polar Lipids (Alabaster, AL, USA). LPS E. coli 055:B5 and phosphate buffered saline (PBS) were from Sigma-Aldrich (Steinheim, Germany). The Mueller Hinton broth was bought from BIOCORP (Warsaw, Poland) and the RPMI-1640 medium from Sigma-Aldrich (Steinheim, Germany). LIVE/DEAD™ BacLight™ Bacterial Viability Kit was obtained from Thermo Fisher Scientific (Waltham, MA, USA). Bacterial strains (Escherichia coli ATCC 25922, Pseudomonas aeruginosa ATCC 9027, Staphylococcus aureus ATCC 25923, Staphylococcus epidermidis ATCC 1922) and the fungal strain (Candida albicans ATCC 10231) were obtained from the Polish Collection of Microorganisms, Polish Academy of Science, Institute of Immunology and Experimental Therapy, Wroclaw, Poland.
(§5) Antimicrobial activity of the lipopeptides was determined according to the broth microdilution guidelines recommended by the Clinical and Laboratory Standards Institute (CLSI). Minimum inhibitory concentrations (MICs) were assumed as the lowest concentration of the peptide solution, at which the visible growth of microorganisms was inhibited. MIC values of lipopeptides against bacteria were evaluated in the Mueller–Hinton broth and against fungus in the RPMI-1640 medium. Initial inoculums of bacteria and fungus (with concentrations of 5 × 10^5 CFU/mL and 2 × 10^3 CFU/mL, respectively) were exposed to increasing concentrations of lipopeptides solutions over the range of 1–512 µg/mL. […] The 96-well plates filled with appropriate inoculums and the tested compounds were incubated for 18 h at 37 °C. Presented values are the mean of the results obtained in three independent experiments.

[8] = tested on: Pseudomonas aeruginosa ATCC 9027; format: cell-based; conditions: ATCC 9027, 18 h
Text: as §4, §5

[9] = tested on: Staphylococcus aureus ATCC 25923; format: cell-based; conditions: ATCC 25923, 18 h
Text: as §4, §5

[10] = tested on: Staphylococcus epidermidis ATCC 1922; format: cell-based; conditions: ATCC 1922, 18 h
Text: as §4, §5

[11] = tested on: Candida albicans ATCC 10231; format: cell-based; conditions: ATCC 10231, 18 h
Text: as §4, §5

[12] = tested on: MCF-7 breast cancer cell line; format: cell-based, human
[13] = tested on: HaCaT human keratinocyte cell line; format: cell-based
Description: as §1, §2

[14] = literature value used for comparison; cited from earlier work
Text: As expected, the critical aggregation concentration (CAC) values increased in the homologue series, i.e., Lys, Orn, Dab, and Dap, with a linear relationship of log CAC vs. number of methylene groups in the side chain of palmitoylated residue (Figure S3, Supplementary Materials). […] The modification of the acyl chain position separated the posi ...

[15] = Analytical RP-HPLC retention time as measure of hydrophobicity; format: physicochemical; conditions: Jupiter 4 µ Proteo 90 Å 250 x 4.60 mm, linear gradient 15-90% B in A in 30 min, 1 ml/min, A 0.1% aqueous TFA, B 80% acetonitrile in water with 0.1% TFA
Description: The lipopeptides were purified in a Waters RP-HPLC preparative system (Jupiter 4 µ Proteo column, 90 Å, 250 × 10 mm) with the linear gradient of solution B in A from 30% to 60% (A, 0.1% solution of TFA in water and B, 80% solution of ACN in water containing 0.1% of TFA) in 40 min with a flow rate of 5 mL/min. Final purity of the analogues (at least 97%) was determined using an analytical RP-HPLC Shimadzu system (Jupiter 4 µ Proteo column, 90 Å, 250 × 4.60 mm) with the linear gradient of solution B in A from 15% to 90% in 30 min with a flow rate of 1 mL/min. Identity of lipopeptides was confirmed by MALDI-TOF mass spectrometry. Analytical data of the synthesized analogues are presented in Table S1 (Supplementary Materials). ^a linear gradient 15-90% of B in A for 30 min, flow rate 1 ml/min, RP-HPLC Shimadzu system, column: Jupiter 4 µ Proteo, 90 Å, 250 x 4.60 mm; A – 0.1% aqueous TFA solution, B – 80% solution of acetonitrile in water with 0.1% of TFA; ^b molecular masses were determined using MALDI-TOF mass spectrometer.

Compound	IC50, 46BR.1N (24h) [1] [µg/mL]	IC50, A549 (48h) [2] [µg/mL]	IC50, LNCaP (48h) [3] [µg/mL]	IC50, A375 (48h) [4] [µg/mL]	IC50, HCT-116 (48h) [5] [µg/mL]	IC50, HT-29 (48h) [6] [µg/mL]	MIC, E. coli [7] [µg/mL]	MIC, P. aeruginosa [8] [µg/mL]	MIC, S. aureus [9] [µg/mL]	MIC, S. epidermidis [10] [µg/mL]	MIC, C. albicans [11] [µg/mL]	IC50, MCF-7 (48h) [12] [µg/mL]	IC50, HaCaT (24h) [13] [µg/mL]	CAC of N-terminally palmitoylated peptide [14] [mM]	Retention time (used as measure of hydrophobicity) [15] [min]
CCCCCCCCCCCCCCCC(=O)NC[C@H](NC(=O)[C@H](CCCCN)NC(=O)[C@@H](N)CCCCN)C(=O)N[C@@H](CCCCN)C(=O)N[C@@H](CCCCN)C(N)=O [KK(DapC16)KK-NH2] (H-KK[Dap](Palmitoyl)KK-NH2)	12.77 ± 1.32 (≈ 14.9 µM)	>25	>25	>25	23.05 ± 0.92 (≈ 27 µM)	24.68 ± 0.49 (≈ 28.9 µM)	8 (≈ 9.37 µM)	32 (≈ 37.5 µM)	4 (≈ 4.68 µM)	8 (≈ 9.37 µM)	256 (≈ 300 µM)	>25			
CCCCCCCCCCCCCCCC(=O)NCC[C@H](NC(=O)[C@H](CCCCN)NC(=O)[C@@H](N)CCCCN)C(=O)N[C@@H](CCCCN)C(=O)N[C@@H](CCCCN)C(N)=O [KK(DabC16)KK-NH2] (H-KK[Dab](Palmitoyl)KK-NH2)	9.45 ± 2.13 (≈ 10.9 µM)	>25	>25	>25	16.74 ± 0.33 (≈ 19.3 µM)	20.75 ± 0.42 (≈ 23.9 µM)	8 (≈ 9.21 µM)	32 (≈ 36.9 µM)	4 (≈ 4.61 µM)	8 (≈ 9.21 µM)	32 (≈ 36.9 µM)	>25	16.95 ± 1.43 (≈ 19.5 µM)		
C16-KKK-NH2 [Peptide C16-KKK-NH2]														4.8	
CCCCCCCCCCCCCCCC(=O)NCCC[C@H](NC(=O)[C@H](CCCCN)NC(=O)[C@@H](N)CCCCN)C(=O)N[C@@H](CCCCN)C(=O)N[C@@H](CCCCN)C(N)=O [KK(OC16)KK-NH2] (H-KK[Orn](Palmitoyl)KK-NH2)	8.21 ± 1.12 (≈ 9.31 µM)	>25	>25	>25	14.90 ± 0.75 (≈ 16.9 µM)	19.36 ± 0.58 (≈ 21.9 µM)	8 (≈ 9.07 µM)	32 (≈ 36.3 µM)	8 (≈ 9.07 µM)	4 (≈ 4.53 µM)	32 (≈ 36.3 µM)	>25	16.65 ± 2.29 (≈ 18.9 µM)		21.328
CCCCCCCCCCCCCCCC(=O)NC[C@H](NC(=O)[C@@H](N)CCCCN)C(=O)N[C@@H](CCCCN)C(N)=O [K(DapC16)K-NH2] (H-Lys-[Dap](Palmitoyl)-Lys-NH2)	8.68 ± 1.00 (≈ 14.5 µM)	>25	14.0 ± 0.41 (≈ 23.4 µM)	11.63 ± 0.26 (≈ 19.5 µM)	14.90 ± 0.30 (≈ 24.9 µM)	20.24 ± 0.81 (≈ 33.9 µM)	8 (≈ 13.4 µM)	8 (≈ 13.4 µM)	8 (≈ 13.4 µM)	4 (≈ 6.69 µM)	16 (≈ 26.8 µM)	20.11 ± 2.51 (≈ 33.6 µM)	7.25 ± 2.18 (≈ 12.1 µM)		
